Measurements from US20060246149A1, “Antimicrobial pigments” (priority 2003, published 2006).

What was measured:
Assay in all cases: challenge test, germ count by Agar plates method
Type in all cases: cell-based
Conditions in all cases: 8% aqueous suspension
[1] = system: Candida albicans ATCC 10231
Method: (§1) A standard procedure to measure the anti-microbial activity of substances was used (challenge tests). A suspension of test organisms (10^5 to 10^6 germs/ml) is inoculated into a recipient containing already the substance to be tested. Samples of the inoculated suspension are taken and the number of germs is measured thanks to the Agar plates method. Germ counts is performed at t=0, t=24 h after the inoculation, t=48 h after the inoculation, t=7 days after the inoculation, t=14 days after the inoculation.
(§2) Sterile water containing 8% w/w of treated and untreated carriers were each investigated.

Escheria coli ATCC8739 = system: Escheria coli ATCC8739
Method: as §1, §2

[2] = system: Pseudomonas aeruginosa ATCC 9027
Method: as §1, §2

[3] = system: Staphylococcus aureus ATCC 6538
Method: as §1, §2

silver oxide [0.02% Ag2O]
0 germs/ml: Germs Number/ml after 48 h ([1]; 48 h) | Germs Number/ml after 7 d ([1]; 7 d) | Germs Number/ml after 14 d ([1]; 14 d) | Germs Number/ml after 24 h (Escheria coli ATCC8739; 24 h) | Germs Number/ml after 48 h (Escheria coli ATCC8739; 48 h) | Germs Number/ml after 7 d (Escheria coli ATCC8739; 7 d) | Germs Number/ml after 14 d (Escheria coli ATCC8739; 14 d) | Germs Number/ml after 24 h ([2]; 24 h) | Germs Number/ml after 48 h ([2]; 48 h) | Germs Number/ml after 7 d ([2]; 7 d) | Germs Number/ml after 14 d ([2]; 14 d) | Germs Number/ml after 24 h ([3]; 24 h) | Germs Number/ml after 48 h ([3]; 48 h) | Germs Number/ml after 14 d ([3]; 14 d)
